{"source": "patent US20150025034A1", "about": "“COMPOSITION FOR CARE AND HYGIENE OF THE AUDITORY CANAL” (LABORATOIRES GILBERT, priority 2012, published 2015)", "assay": "In vitro assessment of the cerumenolytic effect on plugs of human cerumen", "conditions": "1 ml per 30 mg plug, 1 hour incubation, 37° C.", "description": "The activity was assessed through the loss of weight of the plugs of cerumen caused by the dissolution of part of this plug, or more precisely the loss was calculated between the initial dry weight and the remaining dry weight after action of the product in the test.\nReference product: an aerosol spray based on pure sea water (nitrogen propellant), hereinafter referred to as T1, an aerosol spray containing sodium bicarbonate and polysorbate as active principles, hereinafter referred to as T2, and ultrapure water (type 1, Milli-Q water) are used as references. T1 and T2 are commercially available compositions used by way of compositions for the care and hygiene of the auditory channel and judged effective.\n12 plugs of human cerumen, to a total weight of 1.55 grams, came from patients from the Ear, Nose and Throat Department of the Saint-Grégoire Hospital (35760). The plugs were mixed in order to obtain a homogeneous plug. […]\nThe effect sought is the dissolution of the plug. This dissolution is assessed by the loss of weight of the plug between the initial dry weight and the dry weight after incubation. […]\n1 ml of composition CE1 and the reference compositions were added separately in previously weighed tubes and put in an oven at 90° C. for 48 hours in order to determine the quantity of dry residues of each composition. […]"}
{"molecule": "O", "note": "[pure water, water]", "values": [{"measurement": "Dissolution of human cerumen (loss of dry weight of the plug)", "result": 51.5, "unit": "%"}]}
